Values quoted from earlier work in PubChem BioAssay AID1259409 (Chemical Carcinogenesis Research Information System (CCRIS), 2018).
“And” between values parts separate entries of the source, which are not always exact repeats. Equal entries are not always repeated.

System: rodent chemically induced tumor inhibition, incidence and multiplicity
Experiment: CCRIS tumor inhibitor studies

SMILES: C=C1/C(=C\C=C2/CCC[C@]3(C)[C@@H]([C@H](C)CCCC(C)(C)O)CC[C@@H]23)C[C@@H](O)C[C@@H]1O
- tumour outcome (control, treated, inhibition, significance) (Carcinogen: 7,12-DIMETHYLBENZ[A]ANTHRACENE, 57-97-6, Dose [Inhibitor]: 0.125 NMOL 2/WK STARTING 1 WK AFTER CARCINOGEN TREATMENT AND CONTINUING FOR 9 WK (STUDY DURATION: 10 WK), Route [Inhibitor]: DERMAL, Species: MOUSE, Strain/Sex: CD-1/FEMALE, Target Tissue: Type of Lesion: SKIN: PAPILLOMA, Dose [Carcinogen]: 20 NMOL ONCE, Promoter: 12-O-TETRADECANOYLPHORBOL-13-ACETATE, 16561-29-8): 77%, 37%, 52%, p<0.05
- tumour outcome (control, treated, inhibition, significance) (Carcinogen: 7,12-DIMETHYLBENZ[A]ANTHRACENE, 57-97-6, Dose [Inhibitor]: 0.125 NMOL 2/WK STARTING 1 WK AFTER CARCINOGEN TREATMENT AND CONTINUING FOR 12 WK (STUDY DURATION: 13 WK), Route [Inhibitor]: DERMAL, Species: MOUSE, Strain/Sex: CD-1/FEMALE, Target Tissue: Type of Lesion: SKIN: PAPILLOMA, Dose [Carcinogen]: 20 NMOL ONCE, Promoter: 12-O-TETRADECANOYLPHORBOL-13-ACETATE, 16561-29-8): 96%, 70%, 27%, p<0.05
- tumour outcome (control, treated, inhibition, significance) (Carcinogen: 7,12-DIMETHYLBENZ[A]ANTHRACENE, 57-97-6, Dose [Inhibitor]: 0.25 NMOL 2/WK STARTING 1 WK AFTER CARCINOGEN TREATMENT AND CONTINUING FOR 9 WK (STUDY DURATION: 10 WK), Route [Inhibitor]: DERMAL, Species: MOUSE, Strain/Sex: CD-1/FEMALE, Target Tissue: Type of Lesion: SKIN: PAPILLOMA, Dose [Carcinogen]: 20 NMOL ONCE, Promoter: 12-O-TETRADECANOYLPHORBOL-13-ACETATE, 16561-29-8): 77%, 33%, 57%, p<0.05
- tumour outcome (control, treated, inhibition, significance) (Carcinogen: 7,12-DIMETHYLBENZ[A]ANTHRACENE, 57-97-6, Dose [Inhibitor]: 0.25 NMOL 2/WK STARTING 1 WK AFTER CARCINOGEN TREATMENT AND CONTINUING FOR 12 WK (STUDY DURATION: 13 WK), Route [Inhibitor]: DERMAL, Species: MOUSE, Strain/Sex: CD-1/FEMALE, Target Tissue: Type of Lesion: SKIN: PAPILLOMA, Dose [Carcinogen]: 20 NMOL ONCE, Promoter: 12-O-TETRADECANOYLPHORBOL-13-ACETATE, 16561-29-8): 96%, 70%, 27%, p<0.05
- tumour outcome (control, treated, inhibition, significance) (Carcinogen: 7,12-DIMETHYLBENZ[A]ANTHRACENE, 57-97-6, Dose [Inhibitor]: 0.5 NMOL 2/WK STARTING 1 WK AFTER CARCINOGEN TREATMENT AND CONTINUING FOR 12 WK (STUDY DURATION: 13 WK), Route [Inhibitor]: DERMAL, Species: MOUSE, Strain/Sex: CD-1/FEMALE, Target Tissue: Type of Lesion: SKIN: PAPILLOMA, Dose [Carcinogen]: 20 NMOL ONCE, Promoter: 12-O-TETRADECANOYLPHORBOL-13-ACETATE, 16561-29-8): 83%, 43%, 48%, p<0.05 and 96%, 59%, 39%, p<0.05
- tumour outcome (control, treated, inhibition, significance) (Carcinogen: 7,12-DIMETHYLBENZ[A]ANTHRACENE, 57-97-6, Dose [Inhibitor]: 0.5 NMOL 2/WK STARTING 1 WK AFTER CARCINOGEN TREATMENT AND CONTINUING FOR 15 WK (STUDY DURATION: 16 WK), Route [Inhibitor]: DERMAL, Species: MOUSE, Strain/Sex: CD-1/FEMALE, Target Tissue: Type of Lesion: SKIN: PAPILLOMA, Dose [Carcinogen]: 20 NMOL ONCE, Promoter: 12-O-TETRADECANOYLPHORBOL-13-ACETATE, 16561-29-8): 88%, 59%, 33%, p<0.05 and 92%, 77%, 16%, not significant
- tumour outcome (control, treated, inhibition, significance) (Carcinogen: 7,12-DIMETHYLBENZ[A]ANTHRACENE, 57-97-6, Dose [Inhibitor]: 2 NMOL 2/WK STARTING 1 WK AFTER CARCINOGEN TREATMENT AND CONTINUING FOR 9 WK (STUDY DURATION: 10 WK), Route [Inhibitor]: DERMAL, Species: MOUSE, Strain/Sex: CD-1/FEMALE, Target Tissue: Type of Lesion: SKIN: PAPILLOMA, Dose [Carcinogen]: 20 NMOL ONCE, Promoter: 12-O-TETRADECANOYLPHORBOL-13-ACETATE, 16561-29-8): 47%, 4%, 91%, p<0.05
- tumour outcome (control, treated, inhibition, significance) (Carcinogen: 7,12-DIMETHYLBENZ[A]ANTHRACENE, 57-97-6, Dose [Inhibitor]: 2 NMOL 2/WK STARTING 1 WK AFTER CARCINOGEN TREATMENT AND CONTINUING FOR 12 WK (STUDY DURATION: 13 WK), Route [Inhibitor]: DERMAL, Species: MOUSE, Strain/Sex: CD-1/FEMALE, Target Tissue: Type of Lesion: SKIN: PAPILLOMA, Dose [Carcinogen]: 20 NMOL ONCE, Promoter: 12-O-TETRADECANOYLPHORBOL-13-ACETATE, 16561-29-8): 83%, 12%, 86%, p<0.05
- tumour outcome (control, treated, inhibition, significance) (Carcinogen: 7,12-DIMETHYLBENZ[A]ANTHRACENE, 57-97-6, Dose [Inhibitor]: 2 NMOL 2/WK STARTING 1 WK AFTER CARCINOGEN TREATMENT AND CONTINUING FOR 15 WK (STUDY DURATION: 16 WK), Route [Inhibitor]: DERMAL, Species: MOUSE, Strain/Sex: CD-1/FEMALE, Target Tissue: Type of Lesion: SKIN: PAPILLOMA, Dose [Carcinogen]: 20 NMOL ONCE, Promoter: 12-O-TETRADECANOYLPHORBOL-13-ACETATE, 16561-29-8): 88%, 18%, 80%, p<0.05
- tumour outcome (control, treated, inhibition, significance) (Carcinogen: N-METHYL-N-NITROSOUREA [684-93-5], Dose [Inhibitor]: 0, 0.8 ML OF 10 µM ETHANOL SOLUTION ADMINISTERED IN NORMAL SALINE VIA CATHETER 1X/WK FOR 7 WK BEGINNING 3 WK POST CARCIN, Route [Inhibitor]: INTRAVESICAL, Species: RAT, Strain/Sex: F344/FEMALE, Target Tissue: Type of Lesion: URINARY BLADDER: TUMOR, Dose [Carcinogen]: ONCE/2 WK FOR 6 WK (STUDY DURATION: 31 WK; DOSE NOT REPORTED), Promoter: NONE): 6/9 (67%), 5/9 (56%), 16%, not significant
